Assay [1] has as its target T1, human orexin-2 receptor (Homo sapiens, UniProt O43614).
T1 construct: expressed in transfected cells; host or cells: CHO cells (grown under G418 selection)
T1 sequence (O43614 1-444): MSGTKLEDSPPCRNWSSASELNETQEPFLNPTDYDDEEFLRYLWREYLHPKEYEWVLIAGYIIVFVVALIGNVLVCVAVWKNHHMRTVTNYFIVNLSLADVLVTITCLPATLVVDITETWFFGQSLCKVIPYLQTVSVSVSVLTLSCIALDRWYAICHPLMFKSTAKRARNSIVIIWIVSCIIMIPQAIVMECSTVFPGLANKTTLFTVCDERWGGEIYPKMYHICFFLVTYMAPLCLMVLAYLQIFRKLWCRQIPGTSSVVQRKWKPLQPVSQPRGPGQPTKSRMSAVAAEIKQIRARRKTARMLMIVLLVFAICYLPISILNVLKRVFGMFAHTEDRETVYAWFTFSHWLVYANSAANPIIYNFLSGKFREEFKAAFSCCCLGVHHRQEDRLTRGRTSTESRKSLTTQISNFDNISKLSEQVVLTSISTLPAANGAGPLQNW
Conditions: comparison compound disclosed in U.S. Pat. No. 8,685,961; cited from earlier work.

The target of assay [2] is T1, human orexin-2 receptor. In words: FLIPR Ca2+ flux assay, OX2R. It counts as cell-based. Conditions: for IC50: CHO cells expressing the human orexin-2 receptor, agonist 70 pM Ala-6,12 orexin-A; for Fold Selective: OX1R FLIPR / OX2R FLIPR. Summed up:
(§1)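 Calcium flux in CHO cells bearing rat orexin-1 or human orexin-2 receptor; antagonist 5 min, then 70 pM Ala-6,12 orexin-A. Buffer HBSS, 20 mM HEPES, 0.1% BSA, 2.5 mM probenecid, pH7.4. Read-out: peak fluorescence, IC50.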
In general terms: Calcium flux is commonly read through the fluorescence of an indicator in the cells.

In another assay the target is T2, rat orexin-1 receptor (Rattus norvegicus, UniProt P56718).
T2 construct: expressed in transfected cells; host or cells: CHO cells (grown under G418 selection)
T2 sequence (P56718 1-416): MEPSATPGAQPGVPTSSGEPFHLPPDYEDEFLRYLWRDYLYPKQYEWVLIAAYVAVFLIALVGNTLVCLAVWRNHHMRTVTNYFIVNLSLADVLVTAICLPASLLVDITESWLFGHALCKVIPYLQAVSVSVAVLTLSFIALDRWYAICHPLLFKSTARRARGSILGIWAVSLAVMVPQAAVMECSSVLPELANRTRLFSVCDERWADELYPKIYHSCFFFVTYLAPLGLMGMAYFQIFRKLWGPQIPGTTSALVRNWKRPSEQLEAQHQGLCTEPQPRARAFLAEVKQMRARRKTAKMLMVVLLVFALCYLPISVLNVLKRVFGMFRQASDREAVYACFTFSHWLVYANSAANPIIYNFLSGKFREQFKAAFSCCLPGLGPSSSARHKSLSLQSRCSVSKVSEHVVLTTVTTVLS
In words: FLIPR Ca2+ flux assay, OX1R. It counts as cell-based. Conditions: CHO cells expressing the rat orexin-1 receptor; agonist 70 pM Ala-6,12 orexin-A. The essentials: as §1

Results on eight compounds are retold here after patent US9994570B2, “Bridged diazepane orexin receptor antagonists” (MERCK SHARP & DOHME CORP., priority 2014, dated 2018).

`Cc1ccc(-n2nccn2)c(C(=O)N2CCCN(c3nc4ccccc4o3)CC2)c1` [Example B-3]: the “selectivity between the orexin-1 receptor and the orexin-2 receptor” value at human orexin-2 receptor [1] is on record as “greater selectivity for the orexin-1 receptor than for the orexin-2 receptor”.
Turning to `Cc1cc(C)nc(N2CC3CC2CN(C(=O)c2cccc(F)c2C2CC2)C3)n1` (stereo not shown) [Example 24, (2-cyclopropyl-3-fluorophenyl)(6-(4,6-dimethylpyrimidin-2-yl)-3,6-diazabicyclo[3.2.1]octan-3-yl)methanone], at human orexin-2 receptor [2], the IC50 (usually the point on the concentration scale where inhibition reaches its midpoint) worked out at 17 nM and the “Fold Selective” value is listed as 44. At rat orexin-1 receptor, this compound came in with an IC50 of 743 nM.
For `Cc1cc(C)nc(N2CC3CC2CN(C(=O)c2nccnc2OC(C)C)C3)n1` (stereo not shown) [Example 52, 6-(4,6-dimethylpyrimidin-2-yl)-3-{[3-(1-methylethoxy)pyrazin-2-yl]carbonyl}-3,6-diazabicyclo[3.2.1]octane], in that order: 60 nM, greater than 167 and greater than 10000 nM.
For `Cc1cc(C)nc(N2CC3CC2CN(C(=O)c2cc(F)cnc2C2CC2)C3)n1` (stereo not shown) [Example 8], in that order: 29 nM, 202 and 5860 nM.
Taken in the same sequence, the figures for `COCCc1ccccc1C(=O)N1CC2CC(C1)N(c1nc(C)cc(C)n1)C2` (stereo not shown) [Example 33, 6-(4,6-dimethylpyrimidin-2-yl)-3-{[2-(2-methoxyethyl)-phenyl]carbonyl}-3,6-diazabicyclo[3.2.1]octane] were 44 nM, 91 and 3990 nM.
Take `Cc1cc(C)nc(N2CC3CC2CN(C(=O)c2cccnc2OCC(F)F)C3)n1` (stereo not shown) [Example 9, (2-(2,2-difluoroethoxy)pyridin-3-yl)(6-(4,6-dimethylpyrimidin-2-yl)-3,6-diazabicyclo[3.2.1]octan-3-yl)methanone]: at human orexin-2 receptor [2], the IC50 turned out to be 15 nM and the “Fold Selective” value came out at 122. This compound also returned an IC50 on rat orexin-1 receptor of 1830 nM.
For the compound `Cc1cc(C)nc(N2CC3CC2CN(C(=O)c2cccnc2OC2CCCC2)C3)n1` (stereo not shown) [Example 38], at human orexin-2 receptor [2], the half-maximal inhibitory concentration (IC50) came out at 23 nM and the “Fold Selective” value is listed as 47. This compound also returned a half-inhibitory concentration (IC50) on rat orexin-1 receptor of 1080 nM.
Taken in the same sequence, the figures for `Cc1cc(C)nc(N2CC3CC2CN(C(=O)c2cccnc2OCC(C)C)C3)n1` (stereo not shown) [Example 40, 6-(4,6-dimethyl-pyrimidin-2-yl)-3-{[2-(2-methylpropoxy)pyridin-3-yl]carbonyl}-3,6-diazabicyclo[3.2.1]octane] were 16 nM, 41 and 648 nM.
